Data reported in US5411977A, “Substituted 2,5-diaryl-4-isothiazolin-3-ones as antiinflammatory and antithrombotic agents” (The Dupont Merck Pharmaceutical Company, priority 1993, dated 1995).

Tested on: IL-lb-induced proteoglycan breakdown in bovine nasal cartilage
Assay: in vitro cytokine-induced cartilage degradation assay (Bovine Nasal Septum Cartilage Degradation Assay)
Format: cell-based
Conditions: Bos taurus, IL-lb (500 ng/ml), 40 hours, 37° C.
Protocol: The compounds are efficacious in an in vitro cytokine-induced cartilage degradationassay (Arner EC and Pratta MA 1989. Arthritis Rheum 32:288-297). The activity of these compounds in blocking IL-lb-induced proteoglycan breakdown in bovine nasal cartilage was assessed.
Bovine nasal cartilage was incubated in Dulbecco's 10 modified Eagle's Medium (DMEM) containing 5% FCS and antibiotics at 37° C. in an atmosphere of 95% air and 5% CO2 for 40 hours in the absence or presence of IL-lb (500 ng/ml), with or without compound. Compounds were dissolved in DMSO (10^-2M) and further diluted with 15 medial to the required concentration and were included throughout the culture period. At the end of incubation, media were removed and assayed proteoglycan breakdown products using the 1,9 dimethylmethylene blue assay for glycosaminoglycans. Compounds were evaluated for the ability to block the stimulated release of proteoglycan in response to IL-l.

SMILES	IC50 [µM]	inhibition at 30 µM [%]
Cc1ccc(-n2sc(-c3ccccc3)cc2=O)cc1 [Example 1, N-(4-methylphenyl)-5-phenyl-4-isothiazolin-3-one]	13.2	–
O=c1c(Br)c(-c2ccccc2)sn1-c1ccccc1 [Example 2, 4-bromo-N,5-diphenyl-4-isothiazolin-3-one]	–	38
O=C(O)c1ccc(-n2sc(-c3ccccc3)cc2=O)cc1 [Example 3, N-(4-carboxyphenyl)-5-phenyl-4-isothiazolin-3-one]	–	19
CCOC(=O)c1ccc(-n2sc(-c3ccccc3)cc2=O)cc1 [Example 4, N-(4-carbethoxyphenyl)-5-phenyl-4-isothiazolin-3-one]	8.3	–
NC(=O)c1ccc(-n2sc(-c3ccccc3)cc2=O)cc1 [Example 5, N-(4-carboxamidophenyl)-5-phenyl-4-isothiazolin-3-one]	–	42
Nc1ccccc1-n1sc(-c2ccccc2)cc1=O [Example 6, N-(2-aminophenyl) -5-phenyl-4-isothiazolin-3-one]	–	19
O=c1cc(-c2ccccc2)sn1-c1ccc(N(S(=O)(=O)C(F)(F)F)S(=O)(=O)C(F)(F)F)cc1 [Example 7, N-(4-(bistrifluoromethane)sulfonamidophenyl)-5-phenyl-4-isothiazolin-3-one]	–	48
O=c1cc(-c2ccccc2)sn1-c1nc2ccccc2s1 [Example 8, N-(2-benzothiazolyl)-5-phenyl-4-isothiazolin-3-one]	15	–
O=C(O)c1ccc(-c2cc(=O)n(-c3ccccc3)s2)cc1 [Example 9, 5-(4-carboxyphenyl)-N-phenyl-4-isothiazolin-3-one]	–	18
O=c1c(-c2ccccc2)c(-c2ccccc2)sn1-c1ccccc1 [Example 10, 4,5,N-triphenyl-4-isothiazolin-3-one]	43.5	–
O=c1cc(-c2ccccc2Cl)sn1-c1ccccc1 [Example 11]	11.2	–
COc1ccccc1-c1cc(=O)n(-c2ccccc2)s1 [Example 12]	34.5	–
O=c1cc(-c2ccccc2)sn1-c1ccc(Cl)cc1 [Example 13]	14.8	–
COc1ccc(-n2sc(-c3ccccc3)cc2=O)cc1 [Example 14]	–	85
O=c1cc(-c2ccccc2)sn1-c1ccc(C(F)(F)F)cc1 [Example 15]	7.2	–
O=c1cc(-c2ccccc2)sn1-c1ccc([N+](=O)[O-])cc1 [Example 16]	31	–
Cc1cc([N+](=O)[O-])ccc1-n1sc(-c2ccccc2)cc1=O [Example 17]	14	–
N#Cc1ccc(-n2sc(-c3ccccc3)cc2=O)cc1 [Example 18]	7.8	–
O=c1cc(-c2ccccc2)sn1-c1cccc(Cl)c1 [Example 19]	11.3	–

SMILES	IC50 [µM]	inhibition at 30 µM [%]
COc1cccc(-n2sc(-c3ccccc3)cc2=O)c1 [Example 20]	19	–
O=c1cc(-c2ccccc2)sn1-c1cccc(C(F)(F)F)c1 [Example 21]	7	–
Cc1ccccc1-n1sc(-c2ccccc2)cc1=O [Example 22]	–	52
O=c1cc(-c2ccccc2)sn1-c1ccccc1Cl [Example 23]	–	33
COc1ccccc1-n1sc(-c2ccccc2)cc1=O [Example 24]	–	61
O=c1cc(-c2ccccc2)sn1-c1ccccc1C(F)(F)F [Example 25]	–	25
O=c1cc(-c2ccccc2)sn1-c1ccccc1[N+](=O)[O-] [Example 26, N-(2-nitrophenyl)-5-phenyl-4-isothiazolin-3-one]	–	43
O=c1cc(-c2ccc(Cl)cc2)sn1-c1ccccc1 [Example 28]	14.8	–
O=c1cc(-c2cccc(Cl)c2)sn1-c1ccccc1 [Example 29]	18.5	–
COc1ccc(-c2cc(=O)n(-c3ccccc3)s2)cc1 [Example 30]	–	37
O=c1cc(-c2ccc(C(F)(F)F)cc2)sn1-c1ccccc1 [Example 32]	–	25
O=c1cc(-c2cccc(C(F)(F)F)c2)sn1-c1ccccc1 [Example 33]	14	–
O=c1cc(-c2ccccc2C(F)(F)F)sn1-c1ccccc1 [Example 34]	7.2	–
O=C(O)c1cccc(-n2sc(-c3ccccc3)cc2=O)c1 [Example 35]	–	13
O=C(O)c1ccccc1-n1sc(-c2ccccc2)cc1=O [Example 36]	–	26
CCOC(=O)c1cccc(-n2sc(-c3ccccc3)cc2=O)c1 [Example 37]	7.8	–
CCOC(=O)c1ccccc1-n1sc(-c2ccccc2)cc1=O [Example 38]	12	–
Nc1ccc(-n2sc(-c3ccccc3)cc2=O)cc1 [Example 39, N-(4-aminophenyl)-5-phenyl-4-isothiazolin-3-one]	–	32
Cc1cc(N)ccc1-n1sc(-c2ccccc2)cc1=O [Example 40]	–	14
